How the values were obtained:
CD8+ T cells = test: ELISPOTs detection of IFN-γ secretion by peptide-specific CD8+ T cells; format: cell-based, human
Excerpt: In this example, a ELISPOTs detection kit (Cat. No.: 3420-4AST-10, MABTECH) was used to verify the activation of an immune response of CD8+ T cells by the peptides of the present invention.
Principle of the ELISPOTs detection method is as follows: CD8+ T cells can specifically recognize the complex of HLA-A0201 and a peptide. The population of T cells recognizing the complex of the peptide and HLA-A0201 is varying, depending on the peptide sequence. Since T2 cells express HLA-A0201, CD8+ T cells can specifically recognize the T2 cells loaded with a peptide. After specific recognition of the complex of HLA-A0201 and the peptide, peptide-specific CD8+ T cells can be activated again to secrete IFN-γ interferon. The IFN-γ interferon secreted by the activated CD8+ T cells can be captured by antibodies on the ELISPOTs plate. Finally, the enzyme-conjugated antibody that recognizes IFN-γ can degrade the substrate through the enzyme conjugated thereto and develop color, eventually producing spots. The number of spots represents the number of cells that are activated to secrete IFN-γ interferon.
The cultured cells from Example 3 were added, along with T2 cells loaded with the mutant peptide […] (SEQ ID NO: 2) of the present invention and the wild-type peptide […] (SEQ ID NO: 1), respectively, into ELISPOTs plates, and cultured for 20 h, and then a ELISPOTs detection was performed (see the kit instruction). Finally, the spots produced by the ELISPOTs detection were counted.
The peptide was determined to have immunogenicity when the number of spots of the tested peptide/the number of spots of an unrelated peptide>2; that is, if the number of spots caused by the tested peptide is more than twice than that of an unrelated peptide, the tested peptide is determined to have immunogenicity.

[1] = test system: H2087-TLISSLMPI (SEQ ID NO: 2) subcutaneous tumor; test: Peptide-specific DC-CTL vaccine in H2087-[…] tumor model; format: in vivo, NOD/SCID mice; conditions: DC-CTL activated by peptide, tail vein, about 1×10^8 cells; vs wild-type peptide group
Protocol: The human non-small cell lung adenocarcinoma cell line H2087-[…] (SEQ ID NO: 2) as established in Example 7 was cultured in DMEM medium containing 10% fetal bovine serum, 100 U/mL penicillin and 100 U/mL streptomycin in an incubator at 37° C., 5% CO2. H2087-[…] (SEQ ID NO: 2) tumor cells were collected, centrifuged at 1500 rpm for 5 min, and washed 3 times with sterile physiological saline. The tumor cells were diluted appropriately. To 40 μl of cell suspension was added 10 μl of 0.4% […] for staining and microscopically counting cells. A tumor cell suspension at a concentration of 1*10^8 cells/ml was prepared. 100 μl of the tumor cell suspension was inoculated subcutaneously into a NOD/SCID mouse or an immune-reconstituted NOD/SCID mouse. […] The long diameter a and the short diameter b of the tumor were measured with a vernier caliper every 2-3 days and the size of the tumor was calculated as a*b*b/2. The mice and tumors were weighed and recorded every day. […] The tumor volume and the survival rate of mice were recorded every 2 days. […]
The collected PBLs were subjected to magnetic bead sorting to obtain CD8+ T cells, which were sensitized by co-incubation with DCs loaded with the wild-type peptide, DCs loaded with the mutant peptide […] […] The number of lymphocytes was counted and a cell proliferation index (PI) was calculated on days 0, 7, 14, and 21 of culture, respectively. […]

TLISSLMPI [tumor antigen peptide from CACNA1H mutation, position 1428 arginine to methionine]
Conclusion (immunogenicity) (CD8+ T cells; ELISPOTs): immunogenic | Number of spots in the mutant peptide group (CD8+ T cells; T cells activated by the listed peptide, T2 cells loaded with TLISSLMPI, 20 h): 306 | Number of spots in the wild-type peptide group (CD8+ T cells; T cells activated by the listed peptide, T2 cells loaded with TLISSLRPI, 20 h): 33 | Survival period of mice [1]: prolonged the survival period of mice | Tumor-suppressing effect [1]: significant tumor-suppressing effects

Source: patent publication US11548925B2, “CACNA1H-derived tumor antigen polypeptide and use thereof” (Genoimmune Therapeutics Co., Ltd., priority 2016, dated 2023)
